Laboratory results as given in patent US10822334B2, “ErbB receptor inhibitors” (Dizal (Jiangsu) Pharmaceutical Co., Ltd., priority 2018, dated 2020).

Tests used:
Assay type in all cases: cell-based
WT HER2 = WT HER2 (Homo sapiens (Human), UniProt P04626); assay: HER2 (Y1248) phosphorylation in BT474 cells (MSD); conditions: p-HER2 (Y1248)/total HER2, 4 h, read-out: HER2 WT Amplification BT474 IC50
Experimental: The plates were incubated for 4 h at 37° C. with 5% CO2 and then the HER2 (Y1248) phosphorylation level of cells in each well were measured with MSD Kit (Phospho-ErbB2 ([…]) Assay Whole Cell Lysate Kit: Cat # […]-3). The assay is a electrochemiluminescent method (MESO SCALE DISCOVERY) for determining both phosphorylated and total HER2 of cells with an MSD SECTOR® Imager and then the ratio of p-HER2/total HER2 can be generated by the machine.

WT EGFR = WT EGFR (Homo sapiens (Human), UniProt P00533); assay: EGFR (Y1068) phosphorylation in NCI-H838 cells (MSD); conditions: p-EGFR (Y1068)/total EGFR, 4 h, hEGF stimulation
BT474 cells = assay: BT474 anti-proliferation assay (MTS); conditions: Homo sapiens, BT-474; BT474 cells, 72 h, MTS; read-out: HER2 WT Amplification BT474 GI50
Experimental: A compound's activity of selective inhibition for HER2 wild type amplification can be evaluated with BT474 cell line (ATCC® HTB-20™). The cell line expressed phosphorylated HER2 protein and its proliferation depended on the amplified gene, which could be used for in vitro PD and anti-proliferation assays.
The anti-proliferation activity of compounds were determined as following procedure: The BT474 cells were sorted in 384 well plates with the DMEM medium containing 10% FBS and […] overnight and then dosed with tested compounds at a series of concentrations (30 μM, 10 μM, 3 μM, 0.3 μM, 0.1 μM, 0.03 μM, 0.01 μM, 0.001 μM) on next day. Meanwhile, another cells plate was prepared for measuring GO value on next day. The dosed plates were incubate for 72h at 37° C. with 5% CO2 and the number of viable cells in each well of GO or dosed plates were measured by MTS (CellTiter 96® AQueous One Solution Cell Proliferation Assay, Promega) endpoint. This assay is a colorimetric method for determining the number viable cells in the proliferation assay. Detection reagents (5 μl) was dispensed into per well, and the plates were incubated for 2 hrs at room temperature. Then, absorbance at 490 nm and 650 nm (reference wavelength) in each well was measured using the safile II. (Tecan). The percentage of proliferation was got from the formula: % Proliferation=100×(G3 value of sample well-Go value)/(G3 value of DMSO control-Go value). The GI50 values were further calculated as the compounds concentration required for 50% Proliferation in best-fit curves using Genedata Screener® software.

WT HER2, sequence (P04626 23-1255): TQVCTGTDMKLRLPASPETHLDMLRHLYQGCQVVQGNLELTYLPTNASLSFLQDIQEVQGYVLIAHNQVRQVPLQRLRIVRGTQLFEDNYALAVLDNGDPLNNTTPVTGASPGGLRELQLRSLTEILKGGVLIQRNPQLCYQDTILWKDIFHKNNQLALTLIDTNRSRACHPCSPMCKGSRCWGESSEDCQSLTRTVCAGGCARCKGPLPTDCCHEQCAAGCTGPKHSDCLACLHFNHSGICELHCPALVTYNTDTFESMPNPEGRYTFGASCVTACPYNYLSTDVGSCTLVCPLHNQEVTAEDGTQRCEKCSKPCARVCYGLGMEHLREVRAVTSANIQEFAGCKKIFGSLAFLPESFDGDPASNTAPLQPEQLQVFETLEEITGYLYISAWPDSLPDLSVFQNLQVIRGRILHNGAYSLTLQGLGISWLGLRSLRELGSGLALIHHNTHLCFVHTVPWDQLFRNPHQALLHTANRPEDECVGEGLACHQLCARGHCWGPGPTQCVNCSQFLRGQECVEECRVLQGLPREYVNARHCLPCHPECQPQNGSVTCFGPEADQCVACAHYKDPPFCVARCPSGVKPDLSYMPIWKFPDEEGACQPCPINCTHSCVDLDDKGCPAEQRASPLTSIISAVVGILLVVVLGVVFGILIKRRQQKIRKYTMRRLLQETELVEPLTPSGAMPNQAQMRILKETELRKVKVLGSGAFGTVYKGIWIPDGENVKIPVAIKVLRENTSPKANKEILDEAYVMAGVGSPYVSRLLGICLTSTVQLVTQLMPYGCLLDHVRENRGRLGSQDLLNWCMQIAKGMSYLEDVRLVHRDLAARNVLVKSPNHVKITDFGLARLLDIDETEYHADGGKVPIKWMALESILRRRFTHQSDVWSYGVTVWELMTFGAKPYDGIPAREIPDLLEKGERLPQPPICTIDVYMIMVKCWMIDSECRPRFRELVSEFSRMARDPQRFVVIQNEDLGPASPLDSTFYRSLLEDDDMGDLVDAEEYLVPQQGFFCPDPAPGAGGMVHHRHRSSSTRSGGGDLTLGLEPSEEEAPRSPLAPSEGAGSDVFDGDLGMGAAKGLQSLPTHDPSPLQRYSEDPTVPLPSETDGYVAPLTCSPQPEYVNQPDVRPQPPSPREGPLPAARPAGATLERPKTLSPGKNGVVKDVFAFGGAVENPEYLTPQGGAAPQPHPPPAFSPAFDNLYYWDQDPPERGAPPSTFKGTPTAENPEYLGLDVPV
WT EGFR, sequence (P00533 25-1210): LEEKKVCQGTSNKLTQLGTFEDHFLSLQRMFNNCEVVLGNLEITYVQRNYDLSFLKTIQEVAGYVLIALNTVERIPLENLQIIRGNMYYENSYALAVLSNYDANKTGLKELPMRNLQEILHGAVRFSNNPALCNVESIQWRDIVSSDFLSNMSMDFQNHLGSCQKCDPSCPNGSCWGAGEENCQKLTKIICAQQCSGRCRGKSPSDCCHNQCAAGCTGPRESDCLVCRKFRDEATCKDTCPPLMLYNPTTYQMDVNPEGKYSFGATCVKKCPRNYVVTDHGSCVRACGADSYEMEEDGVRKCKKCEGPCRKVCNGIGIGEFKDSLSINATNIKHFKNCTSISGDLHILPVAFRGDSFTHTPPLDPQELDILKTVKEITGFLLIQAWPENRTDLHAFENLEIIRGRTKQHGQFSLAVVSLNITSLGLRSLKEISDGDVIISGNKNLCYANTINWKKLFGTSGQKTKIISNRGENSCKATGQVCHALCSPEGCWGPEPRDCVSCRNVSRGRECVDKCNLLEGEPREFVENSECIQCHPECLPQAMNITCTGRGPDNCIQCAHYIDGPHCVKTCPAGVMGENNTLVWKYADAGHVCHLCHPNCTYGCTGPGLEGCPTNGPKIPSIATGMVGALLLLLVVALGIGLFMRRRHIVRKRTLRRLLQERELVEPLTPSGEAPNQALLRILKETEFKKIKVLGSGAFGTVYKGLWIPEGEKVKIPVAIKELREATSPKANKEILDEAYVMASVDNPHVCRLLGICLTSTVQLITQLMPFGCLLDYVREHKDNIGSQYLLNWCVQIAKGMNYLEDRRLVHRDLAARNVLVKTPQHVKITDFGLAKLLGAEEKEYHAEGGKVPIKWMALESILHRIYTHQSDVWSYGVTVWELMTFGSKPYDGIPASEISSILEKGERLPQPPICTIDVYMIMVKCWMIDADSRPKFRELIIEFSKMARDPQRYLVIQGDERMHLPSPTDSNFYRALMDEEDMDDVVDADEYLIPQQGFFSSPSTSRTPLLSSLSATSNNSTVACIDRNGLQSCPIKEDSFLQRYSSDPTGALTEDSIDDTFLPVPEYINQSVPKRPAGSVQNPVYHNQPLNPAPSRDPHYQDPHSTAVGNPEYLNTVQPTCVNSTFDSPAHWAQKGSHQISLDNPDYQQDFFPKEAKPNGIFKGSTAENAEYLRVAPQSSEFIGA

Compound | IC50 (WT HER2) | IC50 (WT EGFR) | GI50 (BT474 cells)
Cc1cc(Nc2ncnc3cccc(OC4CCNC(C(F)F)C4)c23)ccc1Oc1ccn2ccnc2c1 (racemic) [Compound 15, (±)-(5-(((2S,4S)-2-(difluoromethyl)piperidin-4-yl)oxy)-N-(4-(imidazo[1,2-a]pyridin-7-yloxy)-3-methylphenyl)quinazolin-4-amine] | 2.55 nM | > 10000 nM | 
[2H]C([2H])([2H])Oc1ccc2ncnc(Nc3ccc(Oc4ccn5ncnc5c4)c(C)c3)c2c1OC1CCN(C([2H])([2H])[2H])CC1(F)F (racemic) [Compound 26, (±)-N-(4-([1,2,4]triazolo[1,5-a]pyridin-7-yloxy)-3-methylphenyl)-5-((3,3-difluoro-1-(methyl-d3)piperidin-4-yl)oxy)-6-(methoxy-d3)quinazolin-4-amine] | 5.84 nM | > 10000 nM | 14.1 nM
COc1ccc2ncnc(Nc3ccc(Oc4ccn5ncnc5c4)c(C)c3)c2c1OC1CCN(C)CC1F (single isomer, unassigned) [Compound 3, N-(4-([1,2,4]triazolo[1,5-a]pyridin-7-yloxy)-3-methylphenyl)-5-((3-fluoro-1-methylpiperidin-4-yl)oxy)-6-methoxyquinazolin-4-amine] | 26 nM | > 3000 nM | 44.7 ± 4.2 nM
COc1ccc2ncnc(Nc3ccc(Oc4ccn5ncnc5c4)c(C)c3)c2c1OC1CN(C)CCC1(F)F (single isomer, unassigned) [Compound 5, N-(4-([1,2,4]triazolo[1,5-a]pyridin-7-yloxy)-3-methylphenyl)-5-((4,4-difluoro-1-methylpiperidin-3-yl)oxy)-6-methoxyquinazolin-4-amine] | 6.83 nM | > 3000 nM | 15.1 ± 8.19 nM
Cc1cc(Nc2ncnc3cccc(OC4CCN(C)CC4(F)F)c23)ccc1Oc1ccc2c(c1)ncn2C (single isomer, unassigned) [Compound 7, 5-((3,3-difluoro-1-methylpiperidin-4-yl)oxy)-N-(3-methyl-4-((1-methyl-1H-benzo[d]imidazol-5-yl)oxy)phenyl)quinazolin-4-amine] | 5.57 nM | > 3000 nM | 8.36 ± 0.15 nM
COc1cc(OC2CCN(C)CC2(F)F)c2c(Nc3ccc(Oc4ccn5ccnc5c4)c(C)c3)ncnc2c1 (single isomer, unassigned) [Compound 8, 5-((3,3-difluoro-1-methylpiperidin-4-yl)oxy)-N-(4-(imidazo[1,2-a]pyridin-7-yloxy)-3-methylphenyl)-7-methoxyquinazolin-4-amine] | 6.92 nM | 1800 nM | 7.47 ± 2.99 nM
Cc1cc(Nc2ncnc3cccc(OC4CCN(C)CC4(F)F)c23)ccc1Oc1ccc2ccnn2c1 (single isomer, unassigned) [Compound 9, 5-((3,3-difluoro-1-methylpiperidin-4-yl)oxy)-N-(3-methyl-4-(pyrazolo[1,5-a]pyridin-6-yloxy)phenyl)quinazolin-4-amine] | 16.2 nM | 1030 nM | 27.3 ± 14.5 nM
Cc1cc(Nc2ncnc3cc(N)cc(OC4CCN(C)CC4(F)F)c23)ccc1Oc1ccn2ncnc2c1 (single isomer, unassigned) [Compound 10, N^4-(4-([1,2,4]triazolo[1,5-a]pyridin-7-yloxy)-3-methylphenyl)-5-((3,3-difluoro-1-methylpiperidin-4-yl)oxy)quinazoline-4,7-diamine] | 7.86 nM | > 3000 nM | 19 ± 2.46 nM
Cc1cc(Nc2ncnc3cccc(OC4CCN(C)CC4F)c23)ccc1Oc1ccn2ccnc2c1 (single isomer, unassigned) [Compound 11] |  |  | 24.6 ± 4.85 nM
CCN1CCC(Oc2cccc3ncnc(Nc4ccc(Oc5ccn6ncnc6c5)c(C)c4)c23)C(F)(F)C1 (single isomer, unassigned) [Compound 12] | 7.56 nM | > 3000 nM | 9.02 nM
Cc1cc(Nc2ncnc3cc(OC4CCOC4)cc(OC4CCN(C)CC4(F)F)c23)ccc1Oc1ccn2ncnc2c1 (single isomer, unassigned) [Compound 18, N-(4-([1,2,4]triazolo[1,5-a]pyridin-7-yloxy)-3-methylphenyl)-5-((3,3-difluoro-1-methylpiperidin-4-yl)oxy)-7-((tetrahydrofuran-3-yl)oxy)quinazolin-4-amine] | 12.6 nM | 515 nM | 8.58 ± 3.55 nM
Cc1cc(Nc2ncnc3cccc(OC4CCN(C)CCC4(F)F)c23)ccc1Oc1ccn2ccnc2c1 (single isomer, unassigned) [Compound 21, 5-((5,5-difluoro-1-methylazepan-4-yl)oxy)-N-(4-(imidazo[1,2-a]pyridin-7-yloxy)-3-methylphenyl)quinazolin-4-amine] | 61.3 ± 11.2 nM |  | 15.9 ± 6.57 nM
COc1cc(OC2CCN(C)CC2(F)F)c2c(Nc3ccc(Oc4cc5ncnn5cc4F)c(C)c3)ncnc2c1 (single isomer, unassigned) [Compound 22, 5-((3,3-difluoro-1-methylpiperidin-4-yl)oxy)-N-(4-((6-fluoro-[1,2,4]triazolo[1,5-a]pyridin-7-yl)oxy)-3-methylphenyl)-7-methoxyquinazolin-4-amine] | 11.6 ± 10.4 nM | 2920 ± 2320 nM | 18.6 ± 6.51 nM
COc1ccc2ncnc(Nc3ccc(Oc4cc5ncnn5cc4F)c(C)c3)c2c1OC1CCN(C)CC1(F)F (single isomer, unassigned) [Compound 23, 5-((3,3-difluoro-1-methylpiperidin-4-yl)oxy)-N-(4-((6-fluoro-[1,2,4]triazolo[1,5-a]pyridin-7-yl)oxy)-3-methylphenyl)-6-methoxyquinazolin-4-amine] | 6.17 nM | > 10000 nM | 11.7 nM
Cc1cc(Nc2ncnc3cccc(O[C@H]4C[C@H]5CC[C@@H](C4)N5CC(F)F)c23)ccc1Oc1ccn2ncnc2c1 [Compound 2, N-(4-([1,2,4]triazolo[1,5-a]pyridin-7-yloxy)-3-methylphenyl)-5-(((1R,3r,5S)-8-(2,2-difluoroethyl)-8-azabicyclo[3.2.1]octan-3-yl)oxy)quinazolin-4-amine] | 6.17 nM |  | 19 ± 1.4 nM
COc1ccc2ncnc(Nc3ccc(Oc4ccn5ncnc5c4)c(C)c3)c2c1OC[C@H]1CC(F)(F)CCN1C [Compound 4, (R)-N-(4-([1,2,4]triazolo[1,5-a]pyridin-7-yloxy)-3-methylphenyl)-5-((4,4-difluoro-1-methylpiperidin-2-yl)methoxy)-6-methoxyquinazolin-4-amine] | 7.96 nM | > 3000 nM | 4.33 ± 0.63 nM
Cc1cc(Nc2ncnc3cccc(OC45CCN(CC4)CC5)c23)ccc1Oc1ccn2ccnc2c1 [Compound 13, N-(4-(imidazo[1,2-a]pyridin-7-yloxy)-3-methylphenyl)-5-(quinuclidin-4-yloxy)quinazolin-4-amine] | 21.8 nM | > 3000 nM | 49.8 ± 6.87 nM
CS(=O)(=O)CCNCc1ccc(-c2ccc3ncnc(Nc4ccc(OCc5cccc(F)c5)c(Cl)c4)c3c2)o1 [Lapatinib, reference compound] |  |  | 12.1 ± 2.78 nM
Cc1cc(Nc2ncnc3ccc(NC4=NC(C)(C)CO4)cc23)ccc1Oc1ccn2ncnc2c1 [ONT380, reference compound] | 2 nM | > 3000 nM | 10.8 ± 4.13 nM
